Assay results: patent US5061708A, “Therapeutic guanine esters” (priority 1987, dated 1991)
Structures can show the parent of a compound that is named as a salt.

Experiments:
[1] = tested on: Herpes Simplex Virus (HSV 1); test: HSV 1 plaque reduction assay in monolayers of Vero cells; format: cell-based; conditions: HSV 1, Vero cells, 50% inhibitory concentration
Experimental: Herpes Simplex Virus (HSV 1) was assayed in monolayers of Vero cells in multiwell trays. Activity of compounds was determined in the plaque reduction assay, in which a cell monolayer was infected with a suspension of HSV 1, and then overlaid with nutrient agarose in the form of a gel to ensure that there was no spread of virus throughout the culture. A range of concentrations of compound of known molarity was incorporated in the nutrient agarose overlay. Plaque numbers at each concentration were expressed as percentages of the control and a dose-response curve was drawn. From this curve the 50% inhibitory concentration (IC50) was estimated.

[2] = tested on: herpes viruses; conditions: particularly against herpes viruses, in words; cited from earlier work
[3] = in words; cited from earlier work

SMILES	IC50 [1]	antiviral activity [2]	absorption from the gastrointestinal tract after oral administration [3]
Nc1nc2c(ncn2COCCO)c(=O)[nH]1 [Acyclovir, 9-(2-Hydroxyethoxymethyl)guanine]	80 to 100 nM	potent antiviral activity	only poorly absorbed
CC[C@H](C)[C@H](N)C(=O)OCCOCn1cnc2c(=O)[nH]c(N)nc21 [Example 1, 2-(2-Amino-1,6-dihydro-6-oxo-9H(purin-9-yl)methoxy)ethyl L-isoleucinate hydrochloride]	3800 nM		
